SMILES strings stand for the structures.

The target of this experiment is Recombinant human ATX (Homo sapiens (Human), UniProt Q13822). As to the kind of experiment: ATX inhibition assay (choline release, Amplex Red fluorescence). In kind it is biochemical. The note with it: ATX 10 nM, LPC 18:1 10 μM, 37° C., 20 min pre-incubation; mean of n≧2. The essentials: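 Activity was taken from the slope of resorufin fluorescence (530/590 nm, read every 2 min for 40 min at 37 °C) produced by choline liberated from 10 μM oleoyl LPC.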
What is called IC50 is the midpoint of a concentration-inhibition curve. Consider `Cc1nnn(Cc2cc(Cl)ccc2/C=C/C(=O)N2CCCCC2c2nc(C(C)C)no2)n1` (single isomer, unassigned) [Example 30b, (R or S, E)-3-(4-chloro-2-((5-methyl-2H-tetrazol-2-yl)methyl)phenyl)-1-(2-(3-isopropyl-1,2,4-oxadiazol-5-yl)piperidin-1-yl)prop-2-en-1-one], for which the IC50 is 100 nM.

Turning to `COCC(=O)N(C)C1CCN(C(=O)/C=C/c2ccc(C(F)(F)F)cc2Cn2nnc(C)n2)CC1` [Example 84, (E)-2-Methoxy-N-methyl-N-(1-(3-(2-((5-methyl-2H-tetrazol-2-yl)methyl)-4-(trifluoromethyl)phenyl)acryloyl)piperidin-4-yl)acetamide], the IC50 turned out to be 8.1 nM.

Consider `Cc1nnn(Cc2cc(Cl)ccc2/C=C/C(=O)N2CCC(c3nnc(C4CC4)o3)CC2)n1` [Example 96, (E)-3-(4-Chloro-2-((5-methyl-2H-tetrazol-2-yl)methyl)phenyl)-1-(4-(5-cyclopropyl-1,3,4-oxadiazol-2-yl)piperidin-1-yl)prop-2-en-1-one], for which the IC50 was found to be 8.3 nM.

`Cc1nnn(Cc2cc(Cl)ccc2/C=C/C(=O)N2CCC(CCNC(=O)c3c[nH]nc3C(F)(F)F)CC2)n1` [Example 146, (E)-N-(2-(1-(3-(4-Chloro-2-((5-methyl-2H-tetrazol-2-yl)methyl)phenyl)acryloyl)piperidin-4-yl)ethyl)-3-(trifluoromethyl)-1H-pyrazole-4-carboxamide]: the IC50 was 17 nM.

Regarding `Cc1nnn(Cc2cc(Cl)ccc2COC(=O)N2CCC(c3ncc(C)o3)CC2)n1` [Example 48, 4-Chloro-2-((5-methyl-2H-tetrazol-2-yl)methyl)benzyl 4-(5-methyloxazol-2-yl)piperidine-1-carboxylate], the IC50 came out at 70 nM.

Regarding `CCc1nnc(C2CCN(C(=O)/C=C/c3ccc(Cl)cc3Cn3nnc(C)n3)CC2)o1` [Example 94, (E)-3-(4-Chloro-2-((5-methyl-2H-tetrazol-2-yl)methyl)phenyl)-1-(4-(5-ethyl-1,3,4-oxadiazol-2-yl)piperidin-1-yl)prop-2-en-1-one], the IC50 was 10 nM.

Consider `Cc1nnn(Cc2cc(C(F)(F)F)ccc2/C=C/C(=O)N2CCN(Cc3coc(C)n3)CC2)n1` [Example 74, (E)-3-(2-((5-Methyl-2H-tetrazol-2-yl)methyl)-4-(trifluoromethyl)phenyl)-1-(4-((2-methyloxazol-4-yl)methyl)piperazin-1-yl)prop-2-en-1-one], for which the concentration for half-maximal inhibition (IC50) was 5.5 nM.

For the compound `Cc1cnn(Cc2cc(Cl)ccc2/C=C/C(=O)N2CCC(Cc3nnc(C)o3)CC2)n1` [Example 80, (E)-3-(4-Chloro-2-((4-methyl-2H-1,2,3-triazol-2-yl)methyl)phenyl)-1-(4-((5-methyl-1,3,4-oxadiazol-2-yl)methyl)piperidin-1-yl)prop-2-en-1-one], the IC50 came out at 454 nM.

For the compound `Cc1nnn(Cc2cc(C(F)(F)F)ccc2/C=C/C(=O)N2CCC(c3nnc(C4CC4)o3)CC2)n1` [Example 86, (E)-1-(4-(5-Cyclopropyl-1,3,4-oxadiazol-2-yl)piperidin-1-yl)-3-(2-((5-methyl-2H-tetrazol-2-yl)methyl)-4-(trifluoromethyl)phenyl)prop-2-en-1-one], the IC50 turned out to be 4.8 nM.

Turning to `Cc1nnn(Cc2ccc(Cl)cc2/C=C/C(=O)N2CCC(Cc3nnc(C)o3)CC2)n1` [Example 43, (E)-3-(5-Chloro-2-((5-methyl-2H-tetrazol-2-yl)methyl)phenyl)-1-(4-((5-methyl-1,3,4-oxadiazol-2-yl)methyl)piperidin-1-yl)prop-2-en-1-one], the IC50 turned out to be 2370 nM.

Turning to `Cc1nnn(Cc2cc(Cl)ccc2/C=C/C(=O)N2CCN(Cc3coc(C)n3)CC2)n1` [Example 140.3, (E)-3-(4-Chloro-2-((5-methyl-2H-tetrazol-2-yl)methyl)phenyl)-1-(4-((2-methyloxazol-4-yl)methyl)piperazin-1-yl)prop-2-en-1-one], the half-inhibitory concentration (IC50) was found to be 30 nM.

`Cc1nnn(Cc2cc(Cl)ccc2/C=C/C(=O)N2CC[C@H](NC(=O)C(F)(F)F)C2)n1` [Example 49.18, (S,E)-N-(1-(3-(4-Chloro-2-((5-methyl-2H-tetrazol-2-yl)methyl)phenyl)acryloyl)pyrrolidin-3-yl)-2,2,2-trifluoroacetamide]: the IC50 was 130 nM.

As to `Cc1nnn(Cc2cc(Cl)ccc2/C=C/C(=O)N2CCN(Cc3cnc(N4CCOCC4)nc3)CC2)n1` [Example 140.8, (E)-3-(4-Chloro-2-((5-methyl-2H-tetrazol-2-yl)methyl)phenyl)-1-(4-((2-morpholinopyrimidin-5-yl)methyl)piperazin-1-yl)prop-2-en-1-one], the IC50 is 8.8 nM.

Consider `Cc1nnn(Cc2cc(Cl)ccc2/C=C/C(=O)N2CCN(c3ncccn3)CC2)n1` [Example 49.1, (E)-3-(4-Chloro-2-((5-methyl-2H-tetrazol-2-yl)methyl)phenyl)-1-(4-(pyrimidin-2-yl)piperazin-1-yl)prop-2-en-1-one], for which the IC50 was 20 nM.

Consider `Cc1nnn(Cc2cc(C(F)(F)F)ccc2/C=C/C(=O)N2CCC(NCCCCc3c[nH]nn3)CC2)n1` [Example 155, (E)-1-(4-((4-(1H-1,2,3-Triazol-4-yl)butyl)amino)piperidin-1-yl)-3-(2-((5-methyl-2H-tetrazol-2-yl)methyl)-4-(trifluoromethyl)phenyl)prop-2-en-1-one], for which the IC50 was found to be 13 nM.

Turning to `Cc1nnn(Cc2cc(C(F)(F)F)ccc2/C=C/C(=O)N2CCC(Cc3nnc(C)o3)CC2)n1` [Example 81, (E)-1-(4-((5-Methyl-1,3,4-oxadiazol-2-yl)methyl)piperidin-1-yl)-3-(2-((5-methyl-2H-tetrazol-2-yl)methyl)-4-(trifluoromethyl)phenyl)prop-2-en-1-one], the half-maximal inhibitory concentration (IC50) was found to be 13 nM.

As to `Cc1nnn(Cc2cc(Cl)ccc2/C=C/C(=O)N2CCN(c3ncccc3C#N)CC2)n1` [Example 49.28, (E)-2-(4-(3-(4-Chloro-2-((5-methyl-2H-tetrazol-2-yl)methyl)phenyl)acryloyl)piperazin-1-yl)nicotinonitrile], the IC50 stood at 10 nM.

As for `Cc1nnn(Cc2cc(C(F)(F)F)ccc2/C=C/C(=O)N2CCC(NC(=O)CCCc3c[nH]nn3)CC2)n1` [Example 152, (E)-N-(1-(3-(2-((5-Methyl-2H-tetrazol-2-yl)methyl)-4-(trifluoromethyl)phenyl)acryloyl)piperidin-4-yl)-4-(1H-1,2,3-triazol-4-yl)butanamide], the IC50 stood at 3.9 nM.

For the compound `Cc1nnn(Cc2cc(Cl)ccc2/C=C/C(=O)N2CCC(CCO)CC2)n1` [Example 49.6, (E)-3-(4-Chloro-2-((5-methyl-2H-tetrazol-2-yl)methyl)phenyl)-1-(4-(2-hydroxyethyl)piperidin-1-yl)prop-2-en-1-one], the concentration for half-maximal inhibition (IC50) is 110 nM.

`Cc1nnn(Cc2cc(Cl)ccc2/C=C/C(=O)N2CCCC(c3nc(C(C)C)no3)C2)n1` (single isomer, unassigned) [Example 34a, (R or S, E)-3-(4-Chloro-2-((5-methyl-2H-tetrazol-2-yl)methyl)phenyl)-1-(3-(3-isopropyl-1,2,4-oxadiazol-5-yl)piperidin-1-yl)prop-2-en-1-one]: the IC50 came to 18 nM.

For the compound `Cc1cnn(CCC2CCN(C(=O)/C=C/c3ccc(Cl)cc3Cn3nnc(C)n3)CC2)c1` [Example 33, (E)-3-(4-Chloro-2-((5-methyl-2H-tetrazol-2-yl)methyl)phenyl)-1-(4-(2-(4-methyl-1H-pyrazol-1-yl)ethyl)piperidin-1-yl)prop-2-en-1-one], the IC50 turned out to be 53 nM.

For the origin of these results see patent US9763957B2, “Autotaxin inhibitors” (Novartis AG, priority 2013, dated 2017).
